Measured values taken from US8940310B2, “Methods of treatment using TLR7 and/or TLR9 inhibitors” (Dynavax Technologies Corporation, priority 2010, dated 2015).
Entries after “also recorded” stand apart in the source; their conditions may differ.

How the values were obtained:
TLR7 and TLR9 [1] = experiment: Tape stripping skin injury in 129 mice; type: in vivo; details: 24 hr
Method: C57BL/6 and 129 mice were purchased from Charles River Laboratories. (NZBxNZW)F1 female mice were purchased from Jackson Laboratories and used at 18-22 weeks of age. MyD88/KO and TLR9/KO mouse colonies were maintained at Simonsen Laboratories and used with age matched C57BL/6 wild type controls at 8-12 weeks of age. Tape stripping was performed after shaving the dorsal area (3×3 cm) using 10 strokes with duct tape. IRS was administered just before tape stripping SC at a distant site. Alternatively, in (NZBxNZW)F1 mice, IRS was administered long term. In certain experiments PDC and neutrophils were depleted with 250 μg of antibody given IP at day −2 and day 0, eight hours before tape stripping. Anti-120G8 (Imgenex) was used for depletion of PDC (Asselin-Paturel et al., 2003), and anti-GR1-LY6G (clone 1A8; Biolegend) was used for depletion of neutrophils (Daley et al., 2008). […] Percentage of area with open lesions in (NZBxNZW)F1 and normal mice was evaluated with Nikon software NIS-elements.
For analysis of cellular infiltrate mice were sacrificed 24 hr later and epidermis and derma were mechanically separated followed by enzymatic digestion with 0.28 U/ML of Liberase 3 (Roche) for 20 minutes at 37° C., passed trough a 70 μm filter washed in RPMI without serum, counted and stained for flow cytometric analyses. […]

TLR7 and TLR9 [2] = experiment: Tape stripping skin lesions in lupus prone (NZBxNZW)F1 mice; type: in vivo; set-up: key to Dermal inflammation: graded on a scale of 1 to 3; details: for Dermal inflammation / Epidermis thickness / Intraepithelial inflammation / Panniculum inflammation / Ulceration: histological score
Method: SEQ ID NO:42 (IRS) was used starting the day of the tape stripping during the entire course of the experiments (FIGS. 29A,D,E) or starting at 4 days post injury when the disease is already established (FIGS. 30A,D,E). In both cases SEQ ID NO:42 (IRS) (100 μg; s. c.) was administered twice a week. Also described is the timing of PDC depletion experiments described in FIGS. 29A,F,G. Depleting antibody to PDC anti-120G8 (250 μg; i.p.) were given at day −2 and day 0, eight hours before tape stripping and then given twice a week for the entire duration of the experiment. Experiments were stopped in between 15-23 days after initial tape stripping depending on the progression of the lesions in the untreated groups.
C57BL/6 and 129 mice were purchased from Charles River Laboratories. (NZBxNZW)F1 female mice were purchased from Jackson Laboratories and used at 18-22 weeks of age. MyD88/KO and TLR9/KO mouse colonies were maintained at Simonsen Laboratories and used with age matched C57BL/6 wild type controls at 8-12 weeks of age. Tape stripping was performed after shaving the dorsal area (3×3 cm) using 10 strokes with duct tape. IRS was administered just before tape stripping SC at a distant site. Alternatively, in (NZBxNZW)F1 mice, IRS was administered long term. In certain experiments PDC and neutrophils were depleted with 250 μg of antibody given IP at day −2 and day 0, eight hours before tape stripping. Anti-120G8 (Imgenex) was used for depletion of PDC (Asselin-Paturel et al., 2003), and anti-GR1-LY6G (clone 1A8; Biolegend) was used for depletion of neutrophils (Daley et al., 2008). […] In experiments where PDC were depleted, long term 120G8 depleting antibody was administered. Experiments in (NZBxNZW)F1 were terminated between 15-23 days after initial tape stripping, depending on the progression of the lesions in the untreated groups in each experiment. Percentage of area with open lesions in (NZBxNZW)F1 and normal mice was evaluated with Nikon software NIS-elements.
The biopsy specimens were fixed in formalin and embedded in paraffin. Sections were stained with hematoxylin-eosin. Multiple skin sections of 12-30 mice per group were evaluated in a blinded fashion. The following histological features were assessed and graded on a scale of 1 to 3: i) epidermis thickness ii) degree of ulceration iii) intraepithelial inflammation, iv) dermal inflammation, and v) panniculum inflammation. Histological grading was assigned as follows: 0, normal skin architecture, few dermal leukocytes and regular adnexa; 1, mild inflammation, slight epidermal hyperplasia and signs of dermal fibroblast proliferation; 2, moderate inflammation, noticeable epidermal hyperplasia (two- to four-fold increase in epithelial thickness) with hyperkeratosis, significant leukocyte/neutrophil-granulocyte dermal infiltrate with few macrophages, moderate fibrosclerosis of the dermis, reduction in the number of adnexa, slight degenerative changes of the hypodermic adipose tissue; 3, severe inflammation, marked epidermal hyperplasia (>four-fold increase in epithelial thickness) with hyperkeratosis, formation of keratin-filled craters and cysts, diffuse discontinuity of the epidermal layer (ulceration), extensive dermal infiltrate with abundant neutrophils and macrophages, pronounced dermal fibrosclerosis, vanishing of adnexa and evident degenerative changes of the hypodermic adipose tissue. The different parameters were scored separately and summed to obtained a total disease score (Table 22-1). Statistical significance among groups was calculated with a Mann-Whitney U-test.

“5′-TGCTCCTGGAGGGGTTGT-3′ (DNA, backbone not given here) [SEQ ID NO:42]” was tested, and the “expression of IFN-α regulated and pro-inflammatory genes in skin” value (TLR7 and TLR9 [1]; 100 μg s.c. before tape stripping) was “significantly reduced the expression of both IFN-α regulated genes and pro-inflammatory genes”, the “infiltration of cells including PDC and neutrophils” value (TLR7 and TLR9 [1]) was “no measurable effect on infiltration of cells” and the “induction of IFN-regulated and pro-inflammatory genes” value (TLR7 and TLR9 [2]; (NZBxNZW)F1, single injection prior to tape stripping, 24 hr) was “efficiently inhibited this gene induction; also recorded: can be inhibited”. For the same substance, the “Total Disease Score” value (TLR7 and TLR9 [2]; IRS (pre-injury)) was 3.2 ± 0.5, the Dermal inflammation (TLR7 and TLR9 [2]; IRS (pre-injury)) was 1.3 ± 0.2 and the Epidermis thickness (TLR7 and TLR9 [2]; IRS (pre-injury)) was 0.7 ± 0.2. It also gave an Intraepithelial inflammation (TLR7 and TLR9 [2]; IRS (pre-injury)) of 0.2 ± 0.2, a Panniculum inflammation (TLR7 and TLR9 [2]; IRS (pre-injury)) of 0.8 ± 0.1 and a Ulceration (TLR7 and TLR9 [2]; IRS (pre-injury)) of 0.0 ± 0.0. For the same substance, the “Total Disease Score” value (TLR7 and TLR9 [2]; IRS (therapeutic)) was 3.5 ± 0.4, the Dermal inflammation (TLR7 and TLR9 [2]; IRS (therapeutic)) was 1.2 ± 0.1 and the Epidermis thickness (TLR7 and TLR9 [2]; IRS (therapeutic)) was 1.0 ± 0.2. For the same substance, the Intraepithelial inflammation (TLR7 and TLR9 [2]; IRS (therapeutic)) was 0.2 ± 0.2, the Panniculum inflammation (TLR7 and TLR9 [2]; IRS (therapeutic)) was 1.0 ± 0.0 and the Ulceration (TLR7 and TLR9 [2]; IRS (therapeutic)) was 0.2 ± 0.1. The “lesions, share of the stripped area” value (TLR7 and TLR9 [2]; IRS before skin injury and for the duration, day 15-23) was “less than 15%”, the “surface still covered by open lesions” value (TLR7 and TLR9 [2]; IRS beginning at day 4, day 15-23) was 10% and the “CLE-like phenotype / healing of established lesions” value (TLR7 and TLR9 [2]; therapeutic treatment from day 4) was “accelerated healing; also recorded: significantly ameliorated CLE-like phenotype”. The “disease onset (skin appearance, histology, gene signatures)” value (TLR7 and TLR9 [2]; treatment from the day of tape stripping) was “able to prevent disease onset”.
